Earlier results, collected in US20090148502A1, “COMPOSITIONS AND METHODS FOR TREATING LACERATIONS, ABRASIONS, AVULSIONS, BURNS, ULCERS, AND CASES OF EXCESSIVE BLEEDING” (Hemo Nanoscience, LLC, priority 2006, published 2009).

How the values were obtained:
[1] = in vivo
[2] = tested on: wound; conditions: 0.04% (wt/wt), topically applied

| Molecule | duration of action [1] [h] | effect on healing time [2] |
| --- | --- | --- |
| CCCCN1CCCCC1C(=O)Nc1c(C)cccc1C (centres unmarked) [bupivacaine] | 6 to 8 |  |
| Human EGF: human epidermal growth factor |  | successful in reducing the healing time |
